Here are results for two compounds from publication PMC5493200 (ACS infectious diseases, 2016).

The subject of this experiment is drug resistant clinical M. tuberculosis isolates. The experiment is classed as cell-based, Mycobacterium tuberculosis. As to conditions: 29 clinical isolates, 18 MDR and 5 XDR. Set-up: unit not given beside the values.

Regarding `CN[C@@H]1[C@H](O)[C@H](NC)[C@H]2O[C@]3(O)[C@H](O[C@@H]2[C@H]1O)O[C@H](C)C[C@H]3NC(=O)Cc1ccc(O)cn1.Cl.Cl.Cl` [Compound 39, 3′-Dihydro-3′-deoxy-3′(R)-(5-hydroxypyridin-2-yl)acetylamino spectinomycin trihydrochloride], the MIC range is recorded as 1.56–3.13.

`Br.Br.Br.CN[C@@H]1[C@H](O)[C@H](NC)[C@H]2O[C@]3(O)[C@H](O[C@@H]2[C@H]1O)O[C@H](C)C[C@H]3NC(=O)Cc1cc(Cl)c(F)cn1` [Compound 49, 3′-Dihydro-3′-deoxy-3′(R)-(4-chloro-5-fluoropyridin-2-yl)acetylamino spectinomycin trihydrobromide]: the MIC range was 0.39–1.56.
